Patent US20220117266A1, “NICKEL CHELATION THERAPY” (priority 2019, published 2022)
Values joined by “and” are separate entries in the source; they are usually repeats but may differ in a detail not shown here. Identical values can stand only once. Like-named read-outs stand apart in the source and are kept apart here.

How the values were obtained:
C. jejuni 81-176 = experiment: Growth inhibition, liquid 96-well checkerboard (OD600, MIC, MBC); type: cell-based, Campylobacter jejuni; details: for OD600: DMG 0 mM, 24 h
Experimental: Growth inhibition assays: liquid (96-well) plates experiments. This type of experiment can only be conducted with C. jejuni since the gas requirement for C. concisus (H2-enriched microaerobic) is not compatible with the use of 96-well plates. C. jejuni cells were grown as described above, harvested, and resuspended in sterile NaCl (8 g/L) to an OD600 of 0.1, corresponding approximately to 5×10^8 to 1×10^9 cells/mL. […] Wells were serially (2-fold) diluted in each direction (horizontal and vertical) to introduce all combinations. Wells with no DMG or metal compounds served as (positive) growth controls, and wells with no bacteria served as background (negative growth) controls. A typical protocol and loading plan are described in Table 7. The starting inoculum was at OD600 of 0.05, which corresponds approximately to 2.5×10^8 cells/mL to 5×10^8 cells/mL. After 24 hours incubation under microaerobic conditions at 37° C., OD600 was recorded using a 96 well-plate reader (Microtek). […] Resulting growth (or lack of growth) was examined after overnight culturing; the lowest concentration that inhibits 99.9% of the original culture was defined as MBC. MIC and MBC were determined based on tests (plates) done in triplicate.

Aβ40 peptide [1] = target: T1, Aβ40 peptide (Homo sapiens, UniProt P05067); experiment: Thioflavin T (ThT)-based Aβ40 aggregation assay; type: biochemical; parameters: purchased rPeptides, Watkinsville, Ga., USA kit #A-1180-1; host or cells: E. coli; details: for increase of average Aβ40 aggregation rate compared to no supplemental metal control: pH 7.4; for Relative Aβ40 aggregation rate (% control): DMG 0 μM; for Aβ40 peptide aggregation under all pHs tested: pH 6.5, 7.5 or 8.5, 25 mM Aβ40, CuSO4 25 mM, ZnSO4 10 mM or DMG 100 mM (so in the source)
Experimental: Amyloid Beta aggregation. […] This kit contained human recombinant Aβ40 peptide (>97% pure, as determined by manufacturer's HPLC) with the following sequence […] (SEQ ID NO:1), as provided by the manufacturer. […] The aggregation of Aβ40, was shown by the increase in fluorescence (lex=440 nm/lem=485 nm) over time, was followed for 60 min or 120 min, with reading every three or five min, using a Synergy MX reader (Biotek, Winooski, Vt.). A ThT-only background control (no Aβ40 peptide) was included in triplicate in all experiments and subtracted from all readings. The aggregation rate, defined as the increase in fluorescence per min (RFU/min), was calculated by using the formula [A(440,485) at T40min)−A(440,485) at T20min]/20.
Target sequence in this assay (P05067 672-711): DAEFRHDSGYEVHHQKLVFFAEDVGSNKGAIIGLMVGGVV

[2] = tested on: C. jejuni (strain NCTC 11168); experiment: C. jejuni-chicken colonization experiment; type: in vivo, chickens; details: Experiment 1, ad libitum CuSO4 (0.2 mM), 9 days p.i.
Experimental: Since chickens are natural hosts for C. jejuni, and chicken meat is one of the main sources of campylobacteriosis in humans, it was important to test the efficacy of DMG alone or in combination with copper in this animal model. Two independent trials were conducted, as described in FIG. 22. In both trials, the treatment was administered through ad libitum drinks, starting two to three days before C. jejuni inoculation (with strain NCTC 11168), and going through the end of each experiment. […] Nine days after inoculation with C. jejuni, chickens were euthanized, and their ceca were isolated for bacterial count. […] The treatment was administered two days before inoculation with C. jejuni, and chicken ceca were harvested eight days after inoculation.

[3] = tested on: C. jejuni (strain 81-176, ATCC BAA-2151); experiment: Growth inhibition, solid plates (CFU); type: cell-based, Campylobacter jejuni; details: 0.5 mM metal salt in combination with 2 mM DMG
[4] = cited from earlier work
[5] = Acute oral LD50 (literature); type: in vivo, mice
Aβ40 peptide [6] = target: T1, Aβ40 peptide; parameters: yields Aβ peptides of various lengths (38, 40 or 42 amino acids); details: Talmard et al. 2007; read-out: Kd previously reported; cited from earlier work
Target sequence in this assay (P05067 672-711 limits assumed): as the sequence (P05067 672-711) above

[7] = mouse, in vivo
Aβ40 peptide [8] = target: T1, Aβ40 peptide; experiment: Isothermal titration calorimetry; type: binding; parameters: purchased rPeptides, Watkinsville, Ga., USA kit #A-1180-1; host or cells: E. coli; DS (entropy): unit not given here; details: 20 μM Aβ40, 25° C.
Description: Nickel binding to human recombinant Aβ40 peptide is confirmed by isothermal titration calorimetry. Isothermal titration calorimetry (ITC) has been already used to analyze copper or zinc binding to various Aβ peptides, including Ab40 (Talmard et al. Biochemistry 46, 13658-13666 (2007); Sacco et al. JBIC Journal of Biological Inorganic Chemistry 17, 531-541 (2012); Hatcher et al. The journal of physical chemistry B 112, 8160-8164 (2008)). In the current study, we used ITC to determine whether nickel can bind the Aβ40 peptide. The peptide (same used in ThT-based aggregation assays) was present in the sample cell at a concentration of 20 μM. Twenty injections of NiSO4 (1 mM solution, 5 μM increments in sample cell) were performed every 5 min under constant stirring (350 rpm) at 25° C., and the heat release was measured (FIG. 9). The heat release profile indicates Ni binding to the peptide (FIG. 9, top Panel).
Isothermal Titration Calorimetry. […] Briefly, 1 mg of lyophilized Aβ40 peptide (#A-1157-2, rPeptides) was resuspended with 1% NH4OH to a concentration of 250 μM, sonicated for 15-20 sec, before being diluted to a final concentration of 20 μM Aβ40 using ddH2O and TBS 10×, pH 7.4 (working buffer: NH4OH 0.2%, TBS 1×, pH 7.4 (“NTBS”)). […] All samples were degassed for 15 min at 25° C. before use. Titration was initiated using a program for 20 injections (2.38 μL each, every 5 min) with continuous stirring (350 rpm) at constant temperature (25° C.). ITC data were analyzed using NanoAnalyze 1.2 software (TA Instruments). Data obtained with the control experiment (Aβ40 peptide in sample cell, buffer in syringe) were subtracted from each experiment to account for any injection-related heat change.
Target sequence in this assay (P05067 672-711): as above

[9] = 100 mM metal (so in the source)
[10] = experiment A, supplemental metal 10 μM
[11] = experiment B, supplemental metal 100 μM

Row | Compound | MBC (C. jejuni 81-176; metal with DMG 0 mM) [µM] | MIC (C. jejuni 81-176; metal with DMG 0 mM) [µM] | MBC (C. jejuni 81-176; metal with DMG 0.5 mM) [µM] | MIC (C. jejuni 81-176; metal with DMG 0.5 mM) [µM] | increase of average Aβ40 aggregation rate compared to no supplemental metal control (Aβ40 peptide [1]; 10 mM metal (so in the source)) | increase of average Aβ40 aggregation rate compared to no supplemental metal control (Aβ40 peptide [1]; [9]) | Relative Aβ40 aggregation rate (% control) (Aβ40 peptide [1]; [10]) | effect on C. jejuni growth [3] | MBC (C. jejuni 81-176; metal with DMG 1 mM) [µM] | MIC (C. jejuni 81-176; metal with DMG 1 mM) [µM] | MBC (C. jejuni 81-176; metal with DMG 4 mM) [µM] | MIC (C. jejuni 81-176; metal with DMG 4 mM) [µM] | other results
1 | O=S(=O)([O-])[O-].[Cu+2] [Cu, CuSO4, reference compound] | > 1020 | > 1020 | > 1020 | 1020 | no significant effect | no significant effect | 103 ± 19 | – | – | – | – | – | OD600 (C. jejuni 81-176; CuSO4 2 uM): 0.29; OD600 (C. jejuni 81-176; CuSO4 4 uM): 0.23; OD600 (C. jejuni 81-176; CuSO4 8 uM): 0.31; OD600 (C. jejuni 81-176; CuSO4 16 uM): 0.38; OD600 (C. jejuni 81-176; CuSO4 32 uM): 0.26; OD600 (C. jejuni 81-176; CuSO4 64 uM): 0.27; OD600 (C. jejuni 81-176; CuSO4 128 uM): 0.23; OD600 (C. jejuni 81-176; CuSO4 256 uM): 0.38; OD600 (C. jejuni 81-176; CuSO4 512 uM): 0.28; OD600 (C. jejuni 81-176; CuSO4 1024 uM): 0.43; Relative Aβ40 aggregation rate (% control) (Aβ40 peptide [1]; experiment C, supplemental metal 100 μM): 77 ± 2 % control; Aβ40 peptide aggregation under all pHs tested (Aβ40 peptide [1]): negligible; C. jejuni Average CFUs per g of cecum (x10^8) [2]: 5.95 x10^8 CFUs per g of cecum; Chickens Cj-free (n=) ([2]; total n=4): 0; Chickens Colonized (n=) ([2]; total n=4): 4
2 | O=S(=O)([O-])[O-].[Mn+2] [MnSO4] | – | – | – | – | – | – | – | no noticeable effect | – | – | – | – | –
3 | CCN(CC)C(=S)SSC(=S)N(CC)CC [disulfiram] | – | – | – | – | – | – | – | – | – | – | – | – | acute oral LD50 [4]: 1.013 mg/kg; LD50 amount per mouse [5]: approximately 20 μg
4 | O=S(=O)([O-])[O-].[Zn+2] [Zn, ZnSO4, reference compound] | > 1024 | 512 | > 1024 | 512 | 5 fold | 14 fold | 505 ± 29 | no noticeable effect | > 1024 | 512 | > 1024 | 512 | MBC (C. jejuni 81-176; metal with DMG 2 mM): > 1024 µM; MIC (C. jejuni 81-176; metal with DMG 2 mM): 512 µM; Relative Aβ40 aggregation rate (% control) (Aβ40 peptide [1]; [11]): 1423 ± 258 % control; Aβ40 peptide aggregation under all pHs tested (Aβ40 peptide [1]): fastest and sharpest increase in fluorescence; Kd (Aβ40 peptide [6]): 7 ± 3 µM
5 | CC(=NO)C(C)=NO [D-1885, Dimethylglyoxime] | – | – | – | – | – | – | – | – | – | – | – | – | condition of animals given chelator alone [7]: appeared ill
6 | [Cl-].[Cl-].[Co+2] [CO^2+, CoCl2, reference compound] | > 1020 | > 1020 | > 1020 | > 1020 | – | – | – | no noticeable effect | > 1020 | > 1020 | 512 | 256 | –
7 | O=S(=O)([O-])[O-].[Ni+2] [Ni, NiSO4, reference compound] | > 1020 | > 1020 | > 1020 | > 1020 | 2.5 fold | 5.7 fold | 252 ± 8 | no noticeable effect | > 1020 | > 1020 | > 1020 | > 1020 | MBC (C. jejuni 81-176; metal with DMG 2 mM): > 1020 µM; MIC (C. jejuni 81-176; metal with DMG 2 mM): > 1020 µM; DH (enthalpy) (Aβ40 peptide [8]): -1.2 kcal/mol; DS (entropy) (Aβ40 peptide [8]): 86; apparent stoichiometry (Aβ40 peptide [8]): 0.7 mole Ni(II) per mole of Aβ40 p; Kd (Aβ40 peptide [8]; pH 7.4, read-out: apparent Kd): 4.2 µM and ~4.2 µM; Ni(II)-induced Aβ40 aggregation at pH 6.5, compared to pH 7.5 (Aβ40 peptide [1]; NiSO4 25 mM (so in the source)): faster; Ni(II)-induced Aβ40 aggregation at pH 8.5 (Aβ40 peptide [1]; NiSO4 25 mM (so in the source)): absent; Relative Aβ40 aggregation rate (% control) (Aβ40 peptide [1]; [11]): 567 ± 61 % control
